Test [1] has as its system WRL68 cells. Put plainly: MTT cytotoxicity assay. The note with it: Homo sapiens, mean ± SEM (n = 9). The format is cell-based. The protocol:
MTT assay was performed as described by Pérez-Jiménez et al.. Briefly, samples containing 200 µL cell suspension (1 × 10^4 cells/well) were cultured in 96 well plates, in triplicate of three populations of the both cell lines. Subsequent to adherence of the cells within 12 h of incubation, Uvaol was added to the wells at a concentration between 0–140 μg/mL and maintained during 24, 48 and 72 h. MTT was dissolved in the medium and added to the wells at a final concentration of 0.5 mg/mL. Following 2 h of incubation, the generated formazan was dissolved in DMSO. Absorbance was measured at 570 nm in a multiplate reader (Bio-tek®, Winooski, VT, USA). The concentrations that caused 20%, 50% and 80% of inhibition of cell viability (IC20, IC50 and IC80) were calculated following the formula: % […] = (A0 − AT)/A0·100, where A0 is the control absorbance (100% of cell viability) and AT is de absorbance of the incubated cells with the different concentrations of uvaol. OriginPro 8 (OriginLab Corporation, Northampton, MA, USA) was used to performance a dose-response analysis by the following formula: y=A1+ A2− A1/1+10^(Log x0−x)p
In which Logx0 is the center of the curve, p the slope, A1 the lower asymptote and A2 the upper asymptote in the adjustment model described.
(In general: Tetrazolium dyes change colour on reduction, which living cells bring about.)

Another test relates to HepG2 cells. Put plainly: Muse cell cycle assay (flow cytometry). The format is cell-based, human. The note with it: HepG2, IC50, 24 h. The protocol:
(§1) A total of 1.5 × 10^5 cells were seeded per well in 24-well plates for each cell line (quadruplicates for three different populations of each cell line). […] Negative control populations were incubated only with the appropriate culture medium. The samples were analyzed in the Muse^TM Cell Analyzer (Merck-Millipore®, Burlington, MA, USA). The method is based on the analysis of the cell cycle through the discrimination of three populations: cells in phase G0/G1, S or G2/M. For this, the Muse^TM Cell Cycle Kit purchased from Millipore (Billerica, MA, USA) was used following the specification of manufacturer.

The subject of test [2] is WRL68 cells. Put plainly: Muse cell cycle assay (flow cytometry). In kind it is cell-based, human. The note with it: WRL68, IC50, 24 h. As to the method: as §1
For orientation: A flow cytometer gives signals particle by particle.

In general, IC20 refers to the concentration needed for an effect of 20%. A high value points to a need for much substance. Usually IC50 stands for the midpoint of a concentration-inhibition curve. A high value points to a need for much substance. A word on the IC80: it is the concentration at which the effect reaches the 80% level. A high value points to weaker potency.

Each structure is given as a SMILES string. Values after ≈ are worked out from the molar mass of the structure shown.

Regarding `C[C@H]1[C@H](C)CC[C@]2(CO)CC[C@]3(C)C(=CC[C@@H]4[C@@]5(C)CC[C@H](O)C(C)(C)[C@@H]5CC[C@]43C)[C@H]12` [uvaol, urs-12-ene-3,28-diol], in the test on WRL68 cells [1] (WRL68, 24 h exposure), it took 27.6 ± 2.9 µg/mL (≈ 62.3 µM) to reach the 20% level (IC20) and inhibition was half-maximal at 54.3 µg/mL (≈ 123 µM) (IC50). In the test on WRL68 cells [1] (WRL68, 48 h exposure), this compound displayed a 20% effect concentration (IC20) of 13.3 ± 0.8 µg/mL (≈ 30 µM), a half-maximal inhibitory concentration (IC50) of 35.9 ± 0.7 µg/mL (≈ 81.1 µM) and an 80% effect concentration (IC80) of 79.8 ± 0.6 µg/mL (≈ 180 µM). In the test on WRL68 cells [1] (WRL68, 72 h exposure), this compound had an IC20 of 6.8 ± 0.6 µg/mL (≈ 15.4 µM), an IC50 of 19.5 ± 1.1 µg/mL (≈ 44 µM) and an IC80 of 47.2 ± 4.3 µg/mL (≈ 107 µM). In addition, in the test on HepG2 cells, the “change in percentage of cells in G0/G1 phase vs control” value is reported as “statistically significant increase”, the “change in percentage of cells in G2/M phase vs control” value is listed as “equally significant reduction” and the “change in percentage of cells in S phase vs control” value is given as “No differences were found”. Besides, in the test with WRL68 cells [2], the “change in percentage of cells in G0/G1 phase vs control” value is “significant decrease”, the “change in percentage of cells in G2/M phase vs control” value was “increase” and the “change in percentage of cells in S phase vs control” value is given as “significant decrease”.

The record behind these values is paper PMC7571068, “Antiproliferative and Pro-Apoptotic Effect of Uvaol in Human Hepatocarcinoma HepG2 Cells by Affecting G0/G1 Cell Cycle Arrest, ROS Production and AKT/PI3K Signaling Pathway” (Molecules, 2020).
